Data on 4 substances can be found in US7205382B2, “Peptides, the production and use thereof for binding immunoglobulins” (Fresenius Medical Care Affina GmbH, priority 2000, dated 2007).

Bridge positions count the residues as written; N and C are the ends. Square brackets hold non-standard residues; d marks the D form. Ends that are not written are not given here. cellulose = not defined here; βAla = NCCC(=O)O

Assay [1] deals with immunoglobulins from human plasma. Put plainly: Affinity chromatography of human plasma on peptide-sepharose matrices, binding capacity for immunoglobulins. The conditions noted are these: 6 volume fractions per column volume, 80 cm/h, elution pH 2.8. On the procedure: For immobilization to a solid phase, the peptides were dissolved in coupling buffer (30% (v/v) acetonitrile, 0.5 M NaCl, 0.1 M NaHCO3, pH 8.3) to a concentration of 1 mg/ml and mixed with washed and CNBr-preactivated sepharose 4B at a volume ratio of 10:1. After completion of the coupling reaction, the peptide. matrices were washed with coupling buffer, and the excess CNBr groups were inactivated by incubation of the matrix in Tris buffer (100 mM Tris-HCl, 500 mM NaCl, pH 8.0).
The peptide loadings of the matrices were determined by photometry (A280 nm) by establishing the difference between the peptide mass employed before coupling and the non-immobilized peptide mass after coupling.
The peptide matrices were tested by means of affinity chromatography for their binding capacity and binding specificity for immunoglobulins with human plasma as a sample. Thus, 6 volume fractions of human plasma as the sample was passed through 1 column volume fraction of peptide matrix at a linear flow rate of 80 cm/h.
Prior to sample application, the affinity-chromatographic column was equilibrated with PBS, pH 7.2. […]
The determination of the concentration of the eluted protein was effected by photometric measurement of the adsorption at 280 nm. The immunoglobulin concentration was calculated therefrom with ε280 nm=1.35 cm^2/mg for IgG.

Assay [2] concerns serum albumin. Put plainly: Cellulose-immobilized 13-mer peptide variants incubated with serum albumin (negative control), anti-human IgG-AP detection. Format: binding. Set-up: key: No binding of immunoglobulin for the defined peptide variant, detection negative: 0; Binding of immunoglobulin for the defined peptide variant, detection positive: +. As to conditions: blocking buffer without addition, 3 h room temperature. An outline of the steps:
(§1)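 Peptides on cellulose via a (βA)(βA) spacer were blocked in T-TBS (pH 8.0) with 5% saccharose and 4% BSA, then exposed for 3 h at room temperature to IgG-Fc (1 μg/ml), serum diluted 1:10,000, or blocking buffer alone. Bound IgG was detected with AP-anti-human IgG (1.2 μg/ml) and NBT/BCIP colour development.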

In assay [3] the test system is immunoglobulins in human plasma. Put plainly: Cellulose-immobilized 13-mer peptide variants incubated with human plasma, anti-human IgG-AP detection. Format: binding. Set-up: key: No binding of immunoglobulin for the defined peptide variant, detection negative: 0; Binding of immunoglobulin for the defined peptide variant, detection positive: +. The conditions noted are these: human plasma as sample, diluted 1:10,000 in blocking buffer, 3 h room temperature. A digest of the protocol:
as §1

Assay [4] deals with human IgG-Fc. Put plainly: Cellulose-immobilized 13-mer peptide variants incubated with human IgG-Fc, anti-human IgG-AP detection. It counts as binding. Details: key: No binding of immunoglobulin for the defined peptide variant, detection negative: 0; Binding of immunoglobulin for the defined peptide variant, detection positive: +. As to conditions: IgG-Fc 1 μg/ml in blocking buffer, 3 h room temperature. An outline of the steps: as §1

As to “acetyl-D-S-A-W-H-L-G-E-L-V-W-C-T-((βA)(βA)K) (Ac-DSAWHLGELVWCT[βAla][βAla]K; also: immobilized on sepharose 4B) [Peptide matrix A1]”, in assay [1], the “Rel. capacity: mg of bound protein/mg of peptide matrix loading” value is on record as 0.53 mg/mg and the “Volume capacity: mg of bound protein/ml of peptide matrix” value worked out at 4.70 mg/mL.
As to “10N: cellulose-bound 13-mer variant DCAWHLGELNWCT-(βA)(βA) (DCAWHLGELNWCT-{βAla-βAla-cellulose}; disulfide 2-12 (inferred); reading uncertain; also: printed as DCAWHLGELNWCT-(βA)(βA))”, the “Result for incubation with serum albumin (immunoglobulin binding detection)” value (from here on “Result for incubation with serum albumin”) in assay [2] was determined as 0. Further, in assay [3], the “Result for incubation with human plasma (immunoglobulin binding detection)” value (shortened to “Result for incubation with human plasma”) was determined as 0. Also, in assay [4], the “Result for incubation with human IgG-Fc (immunoglobulin binding detection)” value (shortened to “Result for incubation with human IgG-Fc”) is 0.
“08T: cellulose-bound 13-mer variant DCAWHLGTLVWCT-(βA)(βA) (DCAWHLGTLVWCT-{βAla-βAla-cellulose}; disulfide 2-12 (inferred); reading uncertain; also: printed as DCAWHLGTLVWCT-(βA)(βA))”: the “Result for incubation with serum albumin” value in assay [2] is 0. Also, the “Result for incubation with human plasma” value in assay [3] was 0. Besides, the “Result for incubation with human IgG-Fc” value in assay [4] came to 0.
With “01S: cellulose-bound 13-mer variant SCAWHLGELVWCT-(βA)(βA) (SCAWHLGELVWCT-{βAla-βAla-cellulose}; disulfide 2-12 (inferred); reading uncertain; also: printed as SCAWHLGELVWCT-(βA)(βA))”, in assay [2], the “Result for incubation with serum albumin” value is 0. Moreover, the “Result for incubation with human plasma” value in assay [3] is given as 0. Also, the “Result for incubation with human IgG-Fc” value in assay [4] is recorded as “+”.
